# Measurements as given in US9833497B2, “Human originated EGF domain proteins and use of the same” (CHENGDU SOURCEBIO LIMITED-LIABILITY COMPANY, priority 2013, dated 2017).
# Assays:
# Type in all cases: cell-based
# Pseudomonas aeruginosa = experiment: MIC against Gram-negative bacteria: Pseudomonas aeruginosa
# In short: (§1)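 Bacteria grown in LB at 37° C with shaking to McFarland 0.5, pelleted and resuspended in fresh LB, then seeded at 5×10^5 CFU/mL per well. Purified recombinant human EGF domain proteins were two-fold serially diluted in triplicate and plates shaken at 37° C, 175 rpm. MIC is the lowest protein concentration with no bacterial growth.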
# Citrobacter diversus = experiment: MIC against Gram-negative bacteria: Citrobacter diversus
# In short: as §1
# Klebsiella pneumonia = experiment: MIC against Gram-negative bacteria: Klebsiella pneumonia
# In short: as §1
# Serratia marcescens = experiment: MIC against Gram-negative bacteria: Serratia marcescens
# In short: as §1
# Moraxella catarrhalis = experiment: MIC against Gram-negative bacteria: Moraxella catarrhalis
# In short: as §1
# E. coli BL21 = experiment: MIC against Gram-negative bacteria: E. coli BL21; details: for MIC / MIC against E. coli BL21 / MIC (μg/mL) E. coli BL21: E. coli BL21
# In short: as §1
# Aeromonas hydrophila = experiment: MIC against Gram-negative bacteria: Aeromonas hydrophila
# In short: as §1
# Enterobacter cloacae = experiment: MIC against Gram-negative bacteria: Enterobacter cloacae
# In short: as §1
# Proteus vulgaris = experiment: MIC against Gram-negative bacteria: Proteus vulgaris
# In short: as §1
# Proteus mirabilis = experiment: MIC against Gram-negative bacteria: Proteus mirabilis
# In short: as §1
# E. coli DH5α = experiment: Antibacterial activity: MIC and growth curve against E. coli DH5α in 96-well plate; details: minimal inhibitory concentration against E. coli DH5α; 96-well plate, 5×10^5 CFU/mL, 37° C., judged after 8 h
# In short: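 Log-phase DH5α (OD600 about 0.5, 37° C, 185 rpm in LB) was pelleted, resuspended in fresh LB and seeded at 5×10^5 CFU/mL with recombinant protein at 50, 25 and 12.5 μg/mL (two-fold series), in triplicate. Plates were shaken at 175 rpm, 37° C, and OD600 was read every 30 min. MIC was the lowest concentration with no growth.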
# [1] = P. aeruginosa, 10 h cultivation at 37° C., 5×10^5 CFU/mL
# [2] = C. diversus, 10 h cultivation at 37° C., 5×10^5 CFU/mL
# [3] = K. pneumonia, 10 h cultivation at 37° C., 5×10^5 CFU/mL
# [4] = S. marcescens, 10 h cultivation at 37° C., 5×10^5 CFU/mL
# [5] = M. catarrhalis, 10 h cultivation at 37° C., 5×10^5 CFU/mL
# [6] = 10 h cultivation at 37° C., 5×10^5 CFU/mL
# [7] = A. hydrophila, 10 h cultivation at 37° C., 5×10^5 CFU/mL
# [8] = E. cloacae, 10 h cultivation at 37° C., 5×10^5 CFU/mL
# [9] = P. vulgaris, 10 h cultivation at 37° C., 5×10^5 CFU/mL
# [10] = P. mirabilis, 10 h cultivation at 37° C., 5×10^5 CFU/mL
# [11] = Pseudomonas aeruginosa, 96-well plate, 5×10^5 CFU/mL, 37° C., 10 h
# [12] = Citrobacter diversus, 96-well plate, 5×10^5 CFU/mL, 37° C., 10 h
# [13] = Klebsiella pneumonia, 96-well plate, 5×10^5 CFU/mL, 37° C., 10 h
# [14] = Serratia marcescens, 96-well plate, 5×10^5 CFU/mL, 37° C., 10 h
# [15] = Moraxella catarrhalis, 96-well plate, 5×10^5 CFU/mL, 37° C., 10 h
# [16] = 96-well plate, 5×10^5 CFU/mL, 37° C., 10 h
# [17] = Aeromonas hydrophila, 96-well plate, 5×10^5 CFU/mL, 37° C., 10 h
# [18] = Enterobacter cloacae, 96-well plate, 5×10^5 CFU/mL, 37° C., 10 h
# [19] = Proteus vulgaris, 96-well plate, 5×10^5 CFU/mL, 37° C., 10 h
# [20] = Proteus mirabilis, 96-well plate, 5×10^5 CFU/mL, 37° C., 10 h
# [21] = P. aeruginosa, 10 h cultivation at 37° C.
# [22] = C. diversus, 10 h cultivation at 37° C.
# [23] = K. pneumonia, 10 h cultivation at 37° C.
# [24] = S. marcescens, 10 h cultivation at 37° C.
# [25] = M. catarrhalis, 10 h cultivation at 37° C.
# [26] = A. hydrophila, 10 h cultivation at 37° C.
# [27] = E. cloacae, 10 h cultivation at 37° C.
# [28] = P. vulgaris, 10 h cultivation at 37° C.
# [29] = P. mirabilis, 10 h cultivation at 37° C.
substance,measurement,setting,value
PRT419 (DIDECALPTGGHICSYRCINIPGSFQCSCPSSGYRLAPNGRNCQ; listed as Homo sapiens),MIC,Pseudomonas aeruginosa; [1],25 µg/mL
same,MIC,Citrobacter diversus; [2],25 µg/mL
same,MIC,Klebsiella pneumonia; [3],50 µg/mL
same,MIC,Serratia marcescens; [4],25 µg/mL
same,MIC,Moraxella catarrhalis; [5],50 µg/mL
same,MIC,E. coli BL21; [6],12.5 µg/mL
same,MIC,Aeromonas hydrophila; [7],12.5 µg/mL
same,MIC,Enterobacter cloacae; [8],25 µg/mL
same,MIC,Proteus vulgaris; [9],12.5 µg/mL
same,MIC,Proteus mirabilis; [10],25 µg/mL
same,MIC,E. coli DH5α,25 µg/mL
PRT1430 (DINECAHADPCFPGSSCINTMPGFHCEACPRGYKGTQVS; listed as Homo sapiens),MIC against P. aeruginosa,"Pseudomonas aeruginosa; Pseudomonas aeruginosa, 5×10^5 CFU/mL, 10 h cultivation at 37° C.",25 µg/mL
same,MIC against C. diversus,"Citrobacter diversus; Citrobacter diversus, 5×10^5 CFU/mL, 10 h cultivation at 37° C.",25 µg/mL
same,MIC against K. pneumonia,"Klebsiella pneumonia; Klebsiella pneumonia, 5×10^5 CFU/mL, 10 h cultivation at 37° C.",12.5 µg/mL
same,MIC against S. marcescens,"Serratia marcescens; Serratia marcescens, 5×10^5 CFU/mL, 10 h cultivation at 37° C.",25 µg/mL
same,MIC against M. catarrhalis,"Moraxella catarrhalis; Moraxella catarrhalis, 5×10^5 CFU/mL, 10 h cultivation at 37° C.",12.5 µg/mL
same,MIC against E. coli BL21,"E. coli BL21; 5×10^5 CFU/mL, 10 h cultivation at 37° C.",12.5 µg/mL
same,MIC against A. hydrophila,"Aeromonas hydrophila; Aeromonas hydrophila, 5×10^5 CFU/mL, 10 h cultivation at 37° C.",12.5 µg/mL
same,MIC against E. cloacae,"Enterobacter cloacae; Enterobacter cloacae, 5×10^5 CFU/mL, 10 h cultivation at 37° C.",25 µg/mL
same,MIC against P. vulgaris,"Proteus vulgaris; Proteus vulgaris, 5×10^5 CFU/mL, 10 h cultivation at 37° C.",12.5 µg/mL
same,MIC against P. mirabilis,"Proteus mirabilis; Proteus mirabilis, 5×10^5 CFU/mL, 10 h cultivation at 37° C.",25 µg/mL
same,MIC,E. coli DH5α,25 µg/mL
PRT1325 (TEDNCNGTCHTSANCLTNSDGTASCKCAAGFQGNGTICT; listed as Homo sapiens),MIC against P. aeruginosa,Pseudomonas aeruginosa; [11],25 µg/mL
same,MIC against C. diversus,Citrobacter diversus; [12],12.5 µg/mL
same,MIC against K. pneumonia,Klebsiella pneumonia; [13],12.5 µg/mL
same,MIC against S. marcescens,Serratia marcescens; [14],25 µg/mL
same,MIC against M. catarrhalis,Moraxella catarrhalis; [15],12.5 µg/mL
same,MIC against E. coli BL21,E. coli BL21; [16],12.5 µg/mL
same,MIC against A. hydrophila,Aeromonas hydrophila; [17],25 µg/mL
same,MIC against E. cloacae,Enterobacter cloacae; [18],25 µg/mL
same,MIC against P. vulgaris,Proteus vulgaris; [19],12.5 µg/mL
same,MIC against P. mirabilis,Proteus mirabilis; [20],25 µg/mL
same,MIC,E. coli DH5α,12.5 µg/mL
PRT637 (DIDECVNNTVCDSHGFCDNTAGSFRCLCYQGFQAPQDG; listed as Homo sapiens),MIC P. aeruginosa,Pseudomonas aeruginosa; [16],25 µg/mL
same,MIC C. diversus,Citrobacter diversus; [16],50 µg/mL
same,MIC K. pneumonia,Klebsiella pneumonia; [16],50 µg/mL
same,MIC S. marcescens,Serratia marcescens; [16],50 µg/mL
same,MIC M. catarrhalis,Moraxella catarrhalis; [16],25 µg/mL
same,MIC E. coli BL21,E. coli BL21; [16],12.5 µg/mL
same,MIC A. hydrophila,Aeromonas hydrophila; [16],25 µg/mL
same,MIC E. cloacae,Enterobacter cloacae; [16],12.5 µg/mL
same,MIC P. vulgaris,Proteus vulgaris; [16],25 µg/mL
same,MIC P. mirabilis,Proteus mirabilis; [16],12.5 µg/mL
same,MIC,E. coli DH5α,25 µg/mL
PRT975 (LVDWCSRQPCQNGGRCVQTGAYCLCPPGWSGRLCD; listed as Homo sapiens),MIC,Pseudomonas aeruginosa; [21],50 µg/mL
same,MIC,Citrobacter diversus; [22],12.5 µg/mL
same,MIC,Klebsiella pneumonia; [23],12.5 µg/mL
same,MIC,Serratia marcescens; [24],25 µg/mL
same,MIC,Moraxella catarrhalis; [25],12.5 µg/mL
same,MIC,E. coli BL21; 10 h cultivation at 37° C.,12.5 µg/mL
same,MIC,Aeromonas hydrophila; [26],50 µg/mL
same,MIC,Enterobacter cloacae; [27],25 µg/mL
same,MIC,Proteus vulgaris; [28],12.5 µg/mL
same,MIC,Proteus mirabilis; [29],50 µg/mL
same,MIC,E. coli DH5α,25 µg/mL
PRT907 (PSVSCEVAAQRQGVDVARLCQHGGLCVDAGNTHHCRCQAGYTGSYCE; listed as Homo sapiens),MIC,Pseudomonas aeruginosa; [21],12.5 µg/mL
same,MIC,Citrobacter diversus; [22],12.5 µg/mL
same,MIC,Klebsiella pneumonia; [23],25 µg/mL
same,MIC,Serratia marcescens; [24],12.5 µg/mL
same,MIC,Moraxella catarrhalis; [25],12.5 µg/mL
same,MIC,E. coli BL21; 10 h cultivation at 37° C.,12.5 µg/mL
same,MIC,Aeromonas hydrophila; [26],12.5 µg/mL
same,MIC,Enterobacter cloacae; [27],12.5 µg/mL
same,MIC,Proteus vulgaris; [28],25 µg/mL
same,MIC,Proteus mirabilis; [29],25 µg/mL
same,MIC,E. coli DH5α,25 µg/mL
PRT800 (GRVCQCQNGASCDHISGKCTCRTGFTGQHCE; listed as Homo sapiens),MIC (μg/mL) P. aeruginosa,Pseudomonas aeruginosa; [1],25 µg/mL
same,MIC (μg/mL) C. diversus,Citrobacter diversus; [2],50 µg/mL
same,MIC (μg/mL) K. pneumonia,Klebsiella pneumonia; [3],12.5 µg/mL
same,MIC (μg/mL) S. marcescens,Serratia marcescens; [4],25 µg/mL
same,MIC (μg/mL) M. catarrhalis,Moraxella catarrhalis; [5],12.5 µg/mL
same,MIC (μg/mL) E. coli BL21,E. coli BL21; [6],50 µg/mL
same,MIC (μg/mL) A. hydrophila,Aeromonas hydrophila; [7],12.5 µg/mL
same,MIC (μg/mL) E. cloacae,Enterobacter cloacae; [8],50 µg/mL
same,MIC (μg/mL) P. vulgaris,Proteus vulgaris; [9],50 µg/mL
same,MIC (μg/mL) P. mirabilis,Proteus mirabilis; [10],12.5 µg/mL
same,MIC,E. coli DH5α,25 µg/mL
PRT869 (CKCNLHATVCVYDNSKLTCECEHNTTGPDCGKCKKNYQGRPWSPGSYLPIPKGTANTCIP; listed as Homo sapiens),MIC (μg/mL) P. aeruginosa,Pseudomonas aeruginosa; [1],12.5 µg/mL
same,MIC (μg/mL) C. diversus,Citrobacter diversus; [2],12.5 µg/mL
same,MIC (μg/mL) K. pneumonia,Klebsiella pneumonia; [3],12.5 µg/mL
same,MIC (μg/mL) S. marcescens,Serratia marcescens; [4],50 µg/mL
same,MIC (μg/mL) M. catarrhalis,Moraxella catarrhalis; [5],12.5 µg/mL
same,MIC (μg/mL) E. coli BL21,E. coli BL21; [6],25 µg/mL
same,MIC (μg/mL) A. hydrophila,Aeromonas hydrophila; [7],12.5 µg/mL
same,MIC (μg/mL) E. cloacae,Enterobacter cloacae; [8],12.5 µg/mL
same,MIC (μg/mL) P. vulgaris,Proteus vulgaris; [9],12.5 µg/mL
same,MIC (μg/mL) P. mirabilis,Proteus mirabilis; [10],12.5 µg/mL
same,MIC,E. coli DH5α,12.5 µg/mL
PRT18 (CQCNPHGSYGGTCDPATGQCSCRPGVGGLRCDRCEPGFWNFRGIVTDGRSGCTP; listed as Homo sapiens),MIC (μg/mL) P. aeruginosa,Pseudomonas aeruginosa; [11],25 µg/mL
same,MIC (μg/mL) C. diversus,Citrobacter diversus; [12],12.5 µg/mL
same,MIC (μg/mL) K. pneumonia,Klebsiella pneumonia; [13],100 µg/mL
same,MIC (μg/mL) S. marcescens,Serratia marcescens; [14],12.5 µg/mL
same,MIC (μg/mL) M. catarrhalis,Moraxella catarrhalis; [15],12.5 µg/mL
same,MIC (μg/mL) E. coli BL21,E. coli BL21; [16],50 µg/mL
same,MIC (μg/mL) A. hydrophila,Aeromonas hydrophila; [17],25 µg/mL
same,MIC (μg/mL) E. cloacae,Enterobacter cloacae; [18],50 µg/mL
same,MIC (μg/mL) P. vulgaris,Proteus vulgaris; [19],12.5 µg/mL
same,MIC (μg/mL) P. mirabilis,Proteus mirabilis; [20],25 µg/mL
same,MIC,E. coli DH5α,12.5 µg/mL
PRT172 (CADGPCFNGGRCSDSPDGGYSCRCPVGYSGFNC; listed as Homo sapiens),MIC (μg/mL) P. aeruginosa,Pseudomonas aeruginosa; [1],50 µg/mL
same,MIC (μg/mL) C. diversus,Citrobacter diversus; [2],12.5 µg/mL
same,MIC (μg/mL) K. pneumonia,Klebsiella pneumonia; [3],25 µg/mL
same,MIC (μg/mL) S. marcescens,Serratia marcescens; [4],12.5 µg/mL
same,MIC (μg/mL) M. catarrhalis,Moraxella catarrhalis; [5],12.5 µg/mL
same,MIC (μg/mL) E. coli BL21,E. coli BL21; [6],25 µg/mL
same,MIC (μg/mL) A. hydrophila,Aeromonas hydrophila; [7],12.5 µg/mL
same,MIC (μg/mL) E. cloacae,Enterobacter cloacae; [8],12.5 µg/mL
same,MIC (μg/mL) P. vulgaris,Proteus vulgaris; [9],12.5 µg/mL
same,MIC (μg/mL) P. mirabilis,Proteus mirabilis; [10],12.5 µg/mL
same,MIC,E. coli DH5α,12.5 µg/mL
